# Test results reported in ChEMBL document CHEMBL1141262, “Cytotoxic diterpenoids from the hybrid soft coral Sinularia maxima x Sinularia polydactyla” (2007).
# What was measured:
# Type in all cases: functional
# [1] = tested on: K562; experiment: Cytotoxicity against human K562 cells after 72 hrs; details: for CC50: read-out: LC50 (the source's name)
# [2] = tested on: DU-145; experiment: Cytotoxicity against human DU145 cells after 72 hrs; details: for CC50: read-out: LC50 (the source's name)
# [3] = tested on: LNCaP; experiment: Cytotoxicity against human LNcaP cells after 72 hrs; details: for CC50: read-out: LC50 (the source's name)
# [4] = tested on: HeLa; experiment: Cytotoxicity against aplidine resistant human HeLa cells after 72 hrs; details: for CC50: read-out: LC50 (the source's name)
# [5] = tested on: HT-29; experiment: Cytotoxicity against human HT29 cells after 72 hrs
# [6] = tested on: HeLa; experiment: Cytotoxicity against human HeLa cells after 72 hrs; details: for CC50: read-out: LC50 (the source's name)
# [7] = tested on: SK-MEL-28; experiment: Cytotoxicity against human SK-MEL-28 cells after 72 hrs
# [8] = tested on: A549; experiment: Cytotoxicity against human A549 cells after 72 hrs
# [9] = Cytotoxicity against ET-743 resistant human IGROV cells after 72 hrs
# [10] = tested on: SK-BR-3; experiment: Cytotoxicity against human SK-BR3 cells after 72 hrs; details: for CC50: read-out: LC50 (the source's name)
# [11] = tested on: PANC-1; experiment: Cytotoxicity against human PANC1 cells after 72 hrs; details: for CC50: read-out: LC50 (the source's name)
# [12] = tested on: LoVo; experiment: Cytotoxicity against human LoVo cells after 72 hrs; details: for CC50: read-out: LC50 (the source's name)
# [13] = Cytotoxicity against human IGROV cells after 72 hrs; details: for CC50: read-out: LC50 (the source's name)
# [14] = tested on: LoVo; experiment: Cytotoxicity against doxorubicin resistant human LoVo cells after 72 hrs
smiles,measurement,setting,value
C=C(C)[C@H]1C/C2=C(\C(=O)OC)C(OC(C)CC)C(=O)/C=C(\C)C[C@@H]3C=C(C(=O)O3)[C@H](C1)O2 (stereo in doubt; 3),GI50,[1],1.21 µM
same,TGI,[1],2.47 µM
same,CC50,"[1]; Homo sapiens, K562, 72 h",10.6 µM
same,GI50,[2],1.95 µM
same,TGI,"[2]; Homo sapiens, DU-145, 72 h",5.31 µM
same,CC50,"[2]; Homo sapiens, DU-145, 72 h",13.5 µM
same,GI50,[3],1.69 µM
same,TGI,[3],5.17 µM
same,CC50,[3],14.3 µM
same,GI50,[4],0.56 µM
same,TGI,[4],1.31 µM
same,CC50,[4],5.26 µM
same,GI50,[5],1.47 µM
same,TGI,[5],4.14 µM
same,LC50 (concentration killing 50% of cells),"[5]; Homo sapiens, HT-29, 72 h",11.1 µM
same,GI50,[6],0.48 µM
same,TGI,[6],0.93 µM
same,CC50,[6],1.8 µM
same,GI50,[7],0.54 µM
same,LC50,[7],2.13 µM
same,TGI,[7],1.08 µM
same,GI50,[8],1.32 µM
same,TGI,[8],4.59 µM
same,LC50,"[8]; Homo sapiens, A549, 72 h",16.3 µM
same,GI50,[9],1.03 µM
same,TGI,[9],3.64 µM
same,LC50 (50% lethal concentration),"[9]; Homo sapiens, IGROV, 72 h",20.4 µM
same,GI50,[10],39 nM
same,TGI,[10],280 nM
same,CC50,"[10]; Homo sapiens, SK-BR-3, 72 h",> 22.5 µM
same,GI50,[11],580 nM
same,TGI,[11],1.57 µM
same,CC50,[11],7.4 µM
same,GI50,[12],0.51 µM
same,TGI,[12],1.16 µM
same,CC50,[12],3.8 µM
same,GI50,[13],0.52 µM
same,TGI,[13],1.1 µM
same,CC50,[13],3.3 µM
same,GI50,[14],750 nM
same,LC50,"[14]; Homo sapiens, LoVo, 72 h",13.8 µM
same,TGI,"[14]; Homo sapiens, LoVo, 72 h",2.72 µM
C=C(C)[C@H]1C/C2=C(\C(=O)OC)[C@@H]3O[C@@](C)(CC3=O)C[C@@H]3C=C(C(=O)O3)[C@H](C1)O2,GI50,"[1]; Homo sapiens, K562, 72 h",5.58 µM
same,TGI,"[1]; Homo sapiens, K562, 72 h",8.89 µM
same,CC50,"[1]; Homo sapiens, K562, 72 h",14.2 µM
same,GI50,"[2]; Homo sapiens, DU-145, 72 h",4.35 µM
same,TGI,"[2]; Homo sapiens, DU-145, 72 h",8.32 µM
same,CC50,"[2]; Homo sapiens, DU-145, 72 h",15.9 µM
same,GI50,[3],5.05 µM
same,TGI,[3],8.96 µM
same,CC50,[3],15.9 µM
same,GI50,"[4]; Homo sapiens, HeLa, 72 h",3.77 µM
same,TGI,"[4]; Homo sapiens, HeLa, 72 h",7.5 µM
same,CC50,"[4]; Homo sapiens, HeLa, 72 h",15 µM
same,GI50,"[5]; Homo sapiens, HT-29, 72 h",6.48 µM
same,LC50 (concentration killing 50% of cells),"[5]; Homo sapiens, HT-29, 72 h",> 25.6 µM
same,TGI,"[5]; Homo sapiens, HT-29, 72 h",15.4 µM
same,GI50,"[6]; Homo sapiens, HeLa, 72 h",4.38 µM
same,TGI,"[6]; Homo sapiens, HeLa, 72 h",8.04 µM
same,CC50,"[6]; Homo sapiens, HeLa, 72 h",14.8 µM
same,GI50,"[7]; Homo sapiens, SK-MEL-28, 72 h",4.25 µM
same,LC50,"[7]; Homo sapiens, SK-MEL-28, 72 h",13.6 µM
same,TGI,"[7]; Homo sapiens, SK-MEL-28, 72 h",7.61 µM
same,GI50,"[8]; Homo sapiens, A549, 72 h",5.56 µM
same,LC50,"[8]; Homo sapiens, A549, 72 h",25.6 µM
same,TGI,"[8]; Homo sapiens, A549, 72 h",11.9 µM
same,GI50,"[9]; Homo sapiens, IGROV, 72 h",4.56 µM
same,LC50 (50% lethal concentration),"[9]; Homo sapiens, IGROV, 72 h",16.5 µM
same,TGI,"[9]; Homo sapiens, IGROV, 72 h",8.68 µM
same,GI50,"[10]; Homo sapiens, SK-BR-3, 72 h",6400 nM
same,TGI,"[10]; Homo sapiens, SK-BR-3, 72 h",11400 nM
same,CC50,"[10]; Homo sapiens, SK-BR-3, 72 h",20.3 µM
same,GI50,"[11]; Homo sapiens, PANC-1, 72 h",3640 nM
same,TGI,"[11]; Homo sapiens, PANC-1, 72 h",7.15 µM
same,CC50,"[11]; Homo sapiens, PANC-1, 72 h",14.1 µM
same,GI50,"[12]; Homo sapiens, LoVo, 72 h",3.41 µM
same,TGI,"[12]; Homo sapiens, LoVo, 72 h",6.61 µM
same,CC50,"[12]; Homo sapiens, LoVo, 72 h",12.8 µM
same,GI50,"[13]; Homo sapiens, IGROV, 72 h",4.05 µM
same,TGI,"[13]; Homo sapiens, IGROV, 72 h",7.68 µM
same,CC50,"[13]; Homo sapiens, IGROV, 72 h",14.6 µM
same,GI50,"[14]; Homo sapiens, LoVo, 72 h",5660 nM
same,LC50,"[14]; Homo sapiens, LoVo, 72 h",> 25.6 µM
same,TGI,"[14]; Homo sapiens, LoVo, 72 h",16.5 µM
C=C(C)[C@H]1C/C2=C(\C(=O)OC)C(OC(C)CC)C(=O)/C=C(\C)C[C@@H]3C=C(C(=O)O3)[C@H](C1)O2 (stereo in doubt; 2),GI50,[1],5.26 µM
same,TGI,[1],9.45 µM
same,CC50,[1],17 µM
same,GI50,[2],3.98 µM
same,TGI,[2],7.56 µM
same,CC50,[2],14.4 µM
same,GI50,[4],3.17 µM
same,TGI,[4],8.5 µM
same,CC50,[4],22.5 µM
same,GI50,[5],4.93 µM
same,LC50 (concentration killing 50% of cells),[5],18.5 µM
same,TGI,[5],9.54 µM
same,GI50,[6],3.33 µM
same,TGI,[6],7.29 µM
same,CC50,[6],16 µM
same,GI50,[7],3.13 µM
same,LC50,[7],13.5 µM
same,TGI,[7],6.5 µM
same,GI50,[8],5.85 µM
same,LC50,[8],> 22.5 µM
same,TGI,[8],12.3 µM
same,GI50,[9],3.96 µM
same,LC50 (50% lethal concentration),[9],15.8 µM
same,TGI,[9],7.92 µM
same,GI50,[10],580 nM
same,TGI,[10],1430 nM
same,GI50,[11],2900 nM
same,TGI,[11],6.91 µM
same,CC50,[11],16.5 µM
same,GI50,[12],3.46 µM
same,TGI,[12],7.49 µM
same,CC50,[12],16.2 µM
same,GI50,[13],3.4 µM
same,TGI,[13],6.91 µM
same,CC50,[13],14.1 µM
same,GI50,[14],1870 nM
same,LC50,[14],11.9 µM
same,TGI,[14],4.95 µM
